Experimental data reported in patent US20160212997A1, “AGRICULTURAL CHEMICALS” (REDAG CROP PROTECTION LTD, priority 2013, published 2016).

Experiments:
Assay type in all cases: in vivo
[1] = test system: red spider mites, Tetranychus urticae; test: Potter tower spray on red spider mites, knockdown and mortality; conditions: Spider mites
Tomato moths [2] = test: Potter tower spray on tomato moths, knockdown and mortality
aphids, Myzus persicae = test: Potter tower spray on aphids, knockdown and mortality; conditions: Aphids
How it was run: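 Ten aphids (mixed sex and age) per Petri dish on a leaf disc were sprayed by Potter tower with compounds at five concentrations in DMSO. Knockdown and mortality were scored at 24 and 48 hours, five replicates per treatment, alongside carrier-only and untreated controls.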

[3] = test system: Cabbage moth, Mamestra brassicae; test: Potter tower spray on cabbage moth larvae, knockdown and mortality; conditions: Cabbage moths
Excerpt: The compounds were screened for insecticidal efficacy against aphids, Myzus persicae, Cabbage moth, Mamestra brassicae, diamond black moths, Plutella xylostella, red spider mites, Tetranychus urticae, whitefly, Trialeurodes vaporariorum, in terms of knockdown and mortality.
Myzus persicae, Cabbage moth, Mamestra brassicae, diamond back moths, Plutella xylostella, red spider mites, Tetranychus urticae, whitefly, Trialeurodes vaporariorum, were obtained from specified laboratory cultures. Mixed sex and age aphids and mites, moth larvae and whitefly scale infested leaves were used in the experiments. Environmental conditions were closely monitored and recorded and were within the optimal range of the target species.
(§1) The compounds were screened at a range of five concentrations, diluted in DMSO. Some of the compounds were screened against aphids, whitefly and red spider mites and other compounds were screened against cabbage moth, and diamond black moths. A carrier only and an untreated control will also be conducted. Treatments were applied directly onto the insects within Petri dishes, using a potter tower.
(§2) Twenty mites and ten aphids, scales and moth larvae were placed within a Petri dish, lined with a suitable leaf disc on a damp cotton wool pad. Scales were already on leaves. The Petri dishes were then sprayed using a potter tower. The number of knocked down and anthropods were assessed at 24 and 48 hours post treatment. Five replicates were be performed for each treatment, for each species.

Tomato moths [4] = test: Potter tower spray on tomato moths, knockdown and mortality; remark: listed apart in the source
Excerpt: as §1, §2

CC(c1ccc(C(F)(F)F)nc1)S(C)(=O)=NC#N (stereo not shown) [Compound 11, N-[Methyl-oxo-[1-[6-(trifluoromethyl)-3-pyridyl]ethyl]-λ^6-sulfanylidene]cyanamide, reference compound]
percentage control ([1]; 12.5 g/ha, 24 h): E (A percentage control of from 1 to 19 is indicated by the letter E)
percentage control ([1]; 12.5 g/ha, 48 h): D (A percentage control of from 20 to 39 is indicated by the letter D)
percentage control ([1]; 25 g/ha, 24 h): E (A percentage control of from 1 to 19 is indicated by the letter E)
percentage control ([1]; 25 g/ha, 48 h): E (A percentage control of from 1 to 19 is indicated by the letter E)
percentage control ([1]; 50 g/ha, 24 h): D (A percentage control of from 20 to 39 is indicated by the letter D)
percentage control ([1]; 50 g/ha, 48 h): D (A percentage control of from 20 to 39 is indicated by the letter D)
percentage control ([1]; 100 g/ha, 24 h): D (A percentage control of from 20 to 39 is indicated by the letter D)
percentage control ([1]; 100 g/ha, 48 h): D (A percentage control of from 20 to 39 is indicated by the letter D)
percentage control ([1]; 200 g/ha, 24 h): C (A percentage control of from 40 to 59 is indicated by the letter C)
percentage control ([1]; 200 g/ha, 48 h): C (A percentage control of from 40 to 59 is indicated by the letter C)
percentage control (Tomato moths [2]; 12.5 g/ha, 48 h): E (A percentage control of from 1 to 19 is indicated by the letter E)
percentage control (Tomato moths [2]; 100 g/ha, 24 h): E (A percentage control of from 1 to 19 is indicated by the letter E)
percentage control (aphids, Myzus persicae; 12.5 g/ha, 24 h): C (A percentage control of from 40 to 59 is indicated by the letter C)
percentage control (aphids, Myzus persicae; 12.5 g/ha, 48 h): B (A percentage control of from 60 to 79 is indicated by the letter B)
percentage control (aphids, Myzus persicae; 25 g/ha, 24 h): E (A percentage control of from 1 to 19 is indicated by the letter E)
percentage control (aphids, Myzus persicae; 25 g/ha, 48 h): B (A percentage control of from 60 to 79 is indicated by the letter B)
percentage control (aphids, Myzus persicae; 50 g/ha, 24 h): D (A percentage control of from 20 to 39 is indicated by the letter D)
percentage control (aphids, Myzus persicae; 50 g/ha, 48 h): B (A percentage control of from 60 to 79 is indicated by the letter B)
percentage control (aphids, Myzus persicae; 100 g/ha, 24 h): A (A percentage control of from 80 to 100 is indicated by the letter A)
percentage control (aphids, Myzus persicae; 100 g/ha, 48 h): A (A percentage control of from 80 to 100 is indicated by the letter A)
percentage control (aphids, Myzus persicae; 200 g/ha, 24 h): B (A percentage control of from 60 to 79 is indicated by the letter B)
percentage control (aphids, Myzus persicae; 200 g/ha, 48 h): A (A percentage control of from 80 to 100 is indicated by the letter A)
percentage control ([3]; 12.5 g/ha, 24 h): E (A percentage control of from 1 to 19 is indicated by the letter E)
percentage control ([3]; 12.5 g/ha, 48 h): E (A percentage control of from 1 to 19 is indicated by the letter E)
percentage control ([3]; 25 g/ha, 24 h): E (A percentage control of from 1 to 19 is indicated by the letter E)
percentage control ([3]; 25 g/ha, 48 h): E (A percentage control of from 1 to 19 is indicated by the letter E)
percentage control ([3]; 50 g/ha, 24 h): E (A percentage control of from 1 to 19 is indicated by the letter E)
percentage control ([3]; 50 g/ha, 48 h): E (A percentage control of from 1 to 19 is indicated by the letter E)
percentage control ([3]; 100 g/ha, 24 h): E (A percentage control of from 1 to 19 is indicated by the letter E)
percentage control ([3]; 100 g/ha, 48 h): E (A percentage control of from 1 to 19 is indicated by the letter E)
percentage control ([3]; 200 g/ha, 24 h): E (A percentage control of from 1 to 19 is indicated by the letter E)
percentage control ([3]; 200 g/ha, 48 h): E (A percentage control of from 1 to 19 is indicated by the letter E)
percentage control (Tomato moths [4]; 12.5 g/ha, 24 h): 0%
percentage control (Tomato moths [4]; 25 g/ha, 24 h): E (A percentage control of from 1 to 19 is indicated by the letter E)
percentage control (Tomato moths [4]; 25 g/ha, 48 h): E (A percentage control of from 1 to 19 is indicated by the letter E)
percentage control (Tomato moths [4]; 50 g/ha, 24 h): 0%
percentage control (Tomato moths [4]; 50 g/ha, 48 h): E (A percentage control of from 1 to 19 is indicated by the letter E)
percentage control (Tomato moths [4]; 100 g/ha, 48 h): E (A percentage control of from 1 to 19 is indicated by the letter E)
percentage control (Tomato moths [4]; 200 g/ha, 24 h): E (A percentage control of from 1 to 19 is indicated by the letter E)
percentage control (Tomato moths [4]; 200 g/ha, 48 h): E (A percentage control of from 1 to 19 is indicated by the letter E)
